In brackets after ≈: the same amount, converted by molar mass. Like-named read-outs stand apart in the source and are kept apart here. Non-standard residues stand in square brackets, D forms with d. Residues, ends and D or L forms follow the SMILES beside them. pGlu = O=C1CC[C@@H](C(=O)O)N1
Experiments:
[1] = system: Parainfluenza-3 virus; conditions: Vero; reduces virus-induced cytopathogenicity by 50%
[2] = system: Sindbis virus; conditions: Vero; reduces virus-induced cytopathogenicity by 50%
[3] = system: Vero cell cultures
[4] = system: Punta Toro virus; conditions: Vero; reduces virus-induced cytopathogenicity by 50%
[5] = system: Coxsackie virus B4; assay: Antiviral activity in HeLa cell cultures, Coxsackie virus B4; type: cell-based
Protocol: (§1) The cytotoxicity and antiviral activity of various concentrations of G-NH2 and GPG-NH2 were evaluated in cell cultures that were infected with various types of viruses. Conventional host cell culture, viral infection, and infectivity analysis for each different type of cell and virus were followed. Compounds that were known to inhibit replication of the particular types of viruses analyzed were used as controls.

[6] = system: Coxsackie virus B4; assay: Antiviral activity in Vero cell cultures, Coxsackie virus B4; type: cell-based
Protocol: as §1

[7] = system: HeLa cell cultures
[8] = system: Respiratory syncytial virus; conditions: HeLa; reduces virus-induced cytopathogenicity by 50%
[9] = system: Reovirus-1; conditions: Vero; reduces virus-induced cytopathogenicity by 50%
[10] = system: Vesicular stomatitis virus; conditions: HeLa; reduces virus-induced cytopathogenicity by 50%
[11] = system: Herpes simplex virus-2 (G); assay: microbe, parasite or virus in culture; conditions: Human alphaherpesvirus 2, HEL, read-out: Minimum inhibitory concentration Herpes simplex virus-2 (G)
[12] = system: Parainfluenza-3 virus; assay: organism not typed; conditions: Vero, read-out: Minimum inhibitory concentration Parainfluenza-3 virus
[13] = system: HEL cell cultures; assay: Cytotoxicity in HEL cell cultures (cell morphology); conditions: alteration of normal cell morphology
[14] = system: Vesicular stomatitis virus; assay: microbe, parasite or virus in culture; conditions: HEL, read-out: Minimum inhibitory concentration Vesicular stomatitis virus
[15] = system: Herpes simplex virus-1 (KOS); assay: microbe, parasite or virus in culture; conditions: Human alphaherpesvirus 1, HEL, read-out: Minimum inhibitory concentration Herpes simplex virus-1 (KOS)
[16] = system: Sindbis virus; assay: microbe, parasite or virus in culture; conditions: Vero, read-out: Minimum inhibitory concentration Sindbis virus
[17] = system: HeLa cell cultures; assay: Cytotoxicity in HeLa cell cultures (cell morphology); conditions: alteration of normal cell morphology
[18] = system: Reovirus-1; assay: organism not typed; conditions: Vero, read-out: Minimum inhibitory concentration Reovirus-1
[19] = system: Vero cell cultures; assay: Cytotoxicity in Vero cell cultures (cell morphology); conditions: alteration of normal cell morphology
[20] = system: Vaccinia virus; assay: microbe, parasite or virus in culture; conditions: Orthopoxvirus vaccinia, HEL, read-out: Minimum inhibitory concentration Vaccinia virus
[21] = system: Vesicular stomatitis virus; assay: microbe, parasite or virus in culture; conditions: HeLa, read-out: Minimum inhibitory concentration Vesicular stomatitis virus
[22] = system: Punta Toro virus; assay: microbe, parasite or virus in culture; conditions: Vero, read-out: Minimum inhibitory concentration Punta Toro virus
[23] = system: Herpes simplex virus-1 TK^− KOS ACV^r; assay: microbe, parasite or virus in culture; conditions: Human alphaherpesvirus 1, HEL, read-out: Minimum inhibitory concentration Herpes simplex virus-1 TK^− KOS ACV^r
[24] = system: Respiratory syncytial virus; assay: microbe, parasite or virus in culture; conditions: human respiratory syncytial virus, HeLa, read-out: Minimum inhibitory concentration Respiratory syncytial virus
[25] = target: T1, dipeptidylpeptidase activity associated with BS (Bos taurus, UniProt P81425); assay: Inhibition of dipeptidylpeptidase activity of fetal bovine serum (substrate GP-pNA); type: biochemical; conditions: read-out: 50% inhibitory concentration (IC50)
T1 construct: from tissue; host or cells: fetal bovine serum
T1 sequence (P81425 38-765 limits assumed): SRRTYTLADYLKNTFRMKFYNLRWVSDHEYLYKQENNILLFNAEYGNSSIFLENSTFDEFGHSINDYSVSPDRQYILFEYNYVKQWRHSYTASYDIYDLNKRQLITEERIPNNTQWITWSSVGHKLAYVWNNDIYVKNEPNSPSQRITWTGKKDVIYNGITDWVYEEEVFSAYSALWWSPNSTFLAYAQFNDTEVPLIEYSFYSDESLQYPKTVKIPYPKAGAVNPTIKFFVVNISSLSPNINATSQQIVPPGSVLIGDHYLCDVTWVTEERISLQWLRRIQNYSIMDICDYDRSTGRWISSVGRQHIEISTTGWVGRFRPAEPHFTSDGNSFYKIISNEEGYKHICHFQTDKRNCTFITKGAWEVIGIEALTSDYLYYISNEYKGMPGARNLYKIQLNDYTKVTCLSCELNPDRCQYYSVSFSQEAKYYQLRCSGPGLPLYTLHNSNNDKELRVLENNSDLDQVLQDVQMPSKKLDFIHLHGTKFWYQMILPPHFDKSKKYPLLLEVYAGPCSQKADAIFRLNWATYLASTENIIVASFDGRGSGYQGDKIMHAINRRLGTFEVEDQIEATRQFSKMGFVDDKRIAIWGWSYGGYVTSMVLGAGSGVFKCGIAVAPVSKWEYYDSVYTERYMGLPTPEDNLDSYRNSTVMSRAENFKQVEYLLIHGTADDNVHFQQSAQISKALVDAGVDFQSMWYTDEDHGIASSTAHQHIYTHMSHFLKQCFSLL

[26] = system: HIV-1 (IIIB); conditions: in words
[27] = system: HIV-2 (ROD); assay: microbe, parasite or virus in culture; type: cell-based; conditions: 2 (ROD)
Protocol: Human T-lymphocytic CEM cells (4.5×10^5 cells per ml) were suspended in fresh cell culture medium and infected with HIV-1 (IIIB and NL4.3) or HIV-2 (ROD or EHO) at 100 CCID50 (1 CCID50 being the virus dose infective for 50% of the cell cultures) per ml of cell suspension. Then, 100 μl of the infected cell suspension were transferred to microplate wells, mixed with 100 μl of appropriate (freshly prepared) dilutions of the test compounds (i.e., at final concentrations of […]), and were further incubated at 37° C. After 4 to 5 days, giant cell formation was recorded microscopically in the CEM cell cultures. […] (See Table 1).
MT-4, C8166 or CEM cells (4 to 5×10^5 cells per ml) were suspended in fresh culture medium (RPMI-1640 medium supplemented with 10% fetal bovine serum (FBS) (BioWittaker Europe, Verviers, Belgium), 2 mM L-glutamine and […] NaHCO3). Subsequently, the cells were infected with HIV-1 (IIIB) or HIV-2(ROD) at ˜100 CCID50 (1 CCID50 being the dose infective for 50% of the cell cultures) per ml of cell suspension. Then, 100 μl of the infected cell suspension were transferred to 96-well microplate wells, mixed with 100 μl of the appropriate (5-fold) dilutions of the test compounds and further incubated at 37° C. After 4 to 5 days, giant cell formation was recorded microscopically in the CEM and C8166 cell cultures. The MT-4 cell cultures were treated with trypan blue and the number of viable cells was determined.

[28] = in vitro; conditions: human
[29] = target: T2, CD26/dipeptidylpeptidase IV (Homo sapiens, UniProt P27487); assay: Conversion of GPG-NH2 to GP-OH and G-NH2 by purified CD26; type: biochemical
T2 construct: made in house; by own knowledge a natural human source (seminal plasma), not recombinant
T2 sequence (P27487 whole entry): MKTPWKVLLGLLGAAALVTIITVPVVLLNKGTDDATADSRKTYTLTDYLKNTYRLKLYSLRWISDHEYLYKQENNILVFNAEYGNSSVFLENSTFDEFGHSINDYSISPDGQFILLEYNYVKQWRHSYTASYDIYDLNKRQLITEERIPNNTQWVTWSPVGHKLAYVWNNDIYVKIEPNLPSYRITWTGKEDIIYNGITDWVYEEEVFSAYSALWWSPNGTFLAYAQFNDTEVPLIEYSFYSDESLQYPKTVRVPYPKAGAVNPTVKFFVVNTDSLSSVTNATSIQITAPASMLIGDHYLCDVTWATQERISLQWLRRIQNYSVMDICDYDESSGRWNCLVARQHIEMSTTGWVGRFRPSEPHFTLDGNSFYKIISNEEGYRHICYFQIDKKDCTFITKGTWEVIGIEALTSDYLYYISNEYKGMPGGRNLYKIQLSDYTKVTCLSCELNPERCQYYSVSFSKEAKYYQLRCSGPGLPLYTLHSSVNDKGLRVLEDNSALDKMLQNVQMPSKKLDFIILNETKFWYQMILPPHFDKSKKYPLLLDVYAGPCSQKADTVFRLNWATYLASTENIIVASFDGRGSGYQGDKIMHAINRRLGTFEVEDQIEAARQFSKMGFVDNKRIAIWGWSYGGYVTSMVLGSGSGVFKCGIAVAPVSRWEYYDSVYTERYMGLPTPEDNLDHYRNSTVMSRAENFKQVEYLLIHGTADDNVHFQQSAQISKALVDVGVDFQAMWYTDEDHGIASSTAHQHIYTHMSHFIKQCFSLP
Protocol: In some experiments, approximately, 100 μM GPG-NH2 was exposed to 25 units/l of purified CD26 and the mixture was incubated for up to 400 minutes at room temperature. The lymphocyte surface glycoprotein CD26/dipeptidylpeptidase IV was purified as described before. (See De Meester, J. Immunol. Methods, 189:99-105 (1996), herein expressly incorporated by reference in its entirety). At different time points, an aliquot of the reaction mixture was withdrawn and analyzed on an electrospray ion trap mass spectrometer (Esquire, Bruker, Bremen, Germany). The appearance of the dipeptide GP-OH upon release from the amino terminal end of the GPG-NH2 molecule, as well as, the disappearance of intact GPG-NH2 from the reaction mixture was determined and monitored by electrospray ion trap mass spectometric analysis at different time points (See FIG. 3). Under these experimental conditions, CD26 released GP-OH in a time-dependent manner from GPG-NH2, and virtually completely converted GPG-NH2 to GP-OH and G-NH2 within 4 to 6 hrs of the reaction.
Next, the conversion of radiolabeled [^14C]GPG-NH2 to [^14C]G-NH2 by purified CD26, fetal bovine serum (FBS), human serum (HS) and CEM cell suspensions was analyzed. […] A variety of these [^14C]GPG-NH2 concentrations were exposed to purified CD26, FBS, HS and CEM cell suspensions and the conversion to G-NH2 was analyzed. […]

[30] = system: HIV-2 (EHO)
Protocol: Human T-lymphocytic CEM cells (4.5×10^5 cells per ml) were suspended in fresh cell culture medium and infected with HIV-1 (IIIB and NL4.3) or HIV-2 (ROD or EHO) at 100 CCID50 (1 CCID50 being the virus dose infective for 50% of the cell cultures) per ml of cell suspension. Then, 100 μl of the infected cell suspension were transferred to microplate wells, mixed with 100 μl of appropriate (freshly prepared) dilutions of the test compounds (i.e., at final concentrations of […]), and were further incubated at 37° C. After 4 to 5 days, giant cell formation was recorded microscopically in the CEM cell cultures.

[31] = reduces virus-induced cytopathogenicity by 50%
[32] = Enterovirus B, B4, reduces virus-induced cytopathogenicity by 50%, read-out: Minimum inhibitory concentration Coxsackie virus B4

Nc1ncnc2c1ncn2C[C@H](O)CO [(S)-DHPA, reference compound]
Minimum inhibitory concentration Parainfluenza-3 virus [1]: 240 µg/mL (≈ 1150 µM) | Minimum inhibitory concentration Sindbis virus [2]: >400 µg/mL | Minimum cytotoxic concentration [3]: >400 µg/mL | Minimum inhibitory concentration Punta Toro virus [4]: >400 µg/mL | Minimum inhibitory concentration Coxsackie virus B4 [5, 31]: >400 µg/mL | Minimum inhibitory concentration Coxsackie virus B4 [6, 31]: >400 µg/mL | Minimum cytotoxic concentration [7]: >400 µg/mL | Minimum inhibitory concentration Respiratory syncytial virus [8]: >400 µg/mL | Minimum inhibitory concentration Reovirus-1 [9]: 80 µg/mL (≈ 382 µM) | Minimum inhibitory concentration Vesicular stomatitis virus [10]: 240 µg/mL (≈ 1150 µM)

O=c1[nH]c(=O)n([C@H]2C[C@H](O)[C@@H](CO)O2)cc1/C=C/Br [BVDU]
EC50 [11]: > 400 µg/mL | EC50 [12]: > 400 µg/mL | Minimum cytotoxic concentration [13]: >400 µg/mL | EC50 [14]: 400 µg/mL (≈ 1200 µM) | EC50 [15]: 0.0256 µg/mL (≈ 0.0768 µM) | EC50 [16]: > 400 µg/mL | Minimum cytotoxic concentration [17]: ≧400 μg/ml | EC50 [18]: > 400 µg/mL | Minimum cytotoxic concentration [19]: >400 µg/mL | EC50 [5, 32]: > 400 µg/mL | EC50 [20]: 0.64 µg/mL (≈ 1.92 µM) | EC50 [6, 32]: > 400 µg/mL | EC50 [21]: > 400 µg/mL | EC50 [22]: > 400 µg/mL | EC50 [23]: 400 µg/mL (≈ 1200 µM) | EC50 [24]: > 400 µg/mL

CCC(C)C(N)C(=O)N1CCCC1 [IlePyr, L-isoleucinepyrrolidine]
IC50 [25]: 99 µM

NC(=O)CNC(=O)[C@@H]1CCCN1C(=O)[C@@H]1CCC(=O)N1 [PyrQ-PG-NH2, cyclic pyrroglutaminylprolylglycinamide] ([pGlu]-Pro-Gly-NH2)
inhibition of HIV replication in cell culture [26]: ineffective | EC50 [27]: > 2000 µM | EC50 [28]: > 2000 µM | release of G-NH2 by CD26 [29]: unable to release G-NH2 | EC50 [30]: > 2000 µM
